# In PMC6853638, “TMC1 is an essential component of a leak channel that modulates tonotopy and excitability of auditory hair cells in mice” (eLife, 2019):
# Numbering of substitutions follows the chain as printed. “And” between values parts separate entries of the source, which are not always exact repeats. Equal values may be shown once.
# Columns and labels:
# [1] = biological target: T1, cysteine-substituted TMC1 constructs (Mus musculus, UniProt Q8R4P5, D528C); experiment: Background current before and after MTSET treatment in Tmc1-knockout OHCs expressing cysteine-substituted TMC1; format: cell-based; details: Tmc1-knockout OHCs expressing TMC1-D528C, individual cells
# T1 construct: control full-length TMC1 (TMC1_WT); expressed in transfected cells; host or cells: Tmc1-knockout mouse OHCs, injectoporation
# T1 sequence (Q8R4P5 1-757 D528C): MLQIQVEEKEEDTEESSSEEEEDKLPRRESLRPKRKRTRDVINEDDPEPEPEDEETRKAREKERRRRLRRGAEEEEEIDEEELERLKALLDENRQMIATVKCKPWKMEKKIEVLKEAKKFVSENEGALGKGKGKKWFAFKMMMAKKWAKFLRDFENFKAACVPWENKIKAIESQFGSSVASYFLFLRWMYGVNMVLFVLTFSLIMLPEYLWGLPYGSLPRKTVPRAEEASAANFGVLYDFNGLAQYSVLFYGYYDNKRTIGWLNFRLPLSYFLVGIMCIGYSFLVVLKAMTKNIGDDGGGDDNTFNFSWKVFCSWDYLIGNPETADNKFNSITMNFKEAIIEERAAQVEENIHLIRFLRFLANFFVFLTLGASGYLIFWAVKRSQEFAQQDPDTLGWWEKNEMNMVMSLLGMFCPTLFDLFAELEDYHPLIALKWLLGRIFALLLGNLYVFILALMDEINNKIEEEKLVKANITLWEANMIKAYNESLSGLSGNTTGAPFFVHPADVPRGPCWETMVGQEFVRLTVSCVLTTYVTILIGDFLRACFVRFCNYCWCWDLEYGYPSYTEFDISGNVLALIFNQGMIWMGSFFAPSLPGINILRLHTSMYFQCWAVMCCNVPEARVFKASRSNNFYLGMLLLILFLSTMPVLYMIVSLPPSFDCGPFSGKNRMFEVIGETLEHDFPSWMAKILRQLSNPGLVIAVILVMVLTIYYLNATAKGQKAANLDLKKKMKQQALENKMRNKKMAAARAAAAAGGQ
# Method: (§1) Mouse Tmc1 and Tmc2 cDNAs were cloned into CMV-Script and pCDNA3.1- vectors, respectively. To obtain the Tmc1-deafness vector and amino-acid-substituted Tmc1 constructs, specific primers were designed and used for PCR (Supplementary File 1). […] In brief, the organ of Corti was isolated from P3 mice and cut into three pieces in Dulbecco’s modified Eagle’s medium/F12 with 1.5 μg/ml ampicillin. For electroporation, a glass pipette (2 μm tip diameter) was used to deliver cDNA plasmids (0.2 μg/μl in 1 × Hanks' balanced salt solution) to hair cells in the sensory epithelium. EGFP was used as an indicator for the selection of transfected hair cells. A series of three pulses at 60 V lasting 15 ms at 1 s intervals was applied to cochlear tissues by an electroporator (ECM Gemini X2, BTX, CA). The cochlear tissues were cultured for 1 day in vitro and then used for electrophysiological recording.
# (§2) All experiments were performed at room temperature (20–25°C). Briefly, the basilar membrane with hair cells was acutely dissected from neonatal mice. […] The acutely isolated or cultured basilar membrane was used for electrophysiological recording within 1 h. […] Hair cells were recorded with a patch-clamp amplifier (EPC 10 USB and Patchmaster software, HEKA Elektronik, Lambrecht/Pfalz, Germany).
# (§3) The sampling rate was 1 kHz for leak current recording, 50 kHz for the IV protocol and current-clamp recording, and 100 kHz for unitary channel recording. The voltage-clamp used a –70 mV holding potential, and the current-clamp was held at 0 pA. Only recordings with a current baseline <20 pA in NMDG solution were used for statistical analysis.
# [2] = biological target: T2, cysteine-substituted TMC1 constructs (Mus musculus, UniProt Q8R4P5, M412C); experiment: as above; format: cell-based; details: Tmc1-knockout OHCs expressing TMC1-M412C, individual cells
# T2 construct: control full-length TMC1 (TMC1_WT); expressed in transfected cells; host or cells: Tmc1-knockout mouse OHCs, injectoporation
# T2 sequence (Q8R4P5 1-757 M412C): T1 sequence (Q8R4P5 1-757 D528C) with M412C, C528D
# Method: as §1, §2, §3
compound,measurement,setting,value
"C[N+](C)(C)CCSS(C)(=O)=O.[Br-] [MTSET, 2-(trimethylammonium)ethyl methanethiosulfonate, bromide]",amplitude of the background current after MTSET treatment,[1],-23.6585 and -22.824 and -11.63 and -11.1296
same,amplitude of the background current after MTSET treatment,[2],-35.9532 and -37.439 and -48.1972 and -25.6217 and -14.3767 and -67.9843
